Results taken from patent publication US11690810B2, “Combination treatment of bacterial infection” (The Chinese University of Hong Kong, priority 2018, dated 2023).

Assays:
Solubility = conditions: MIC test medium
[1] = test system: S. aureus SA-APH2″-AAC6′ (APH2), resistant to gentamicin; experiment: MIC and checkerboard (FIC) assay; conditions: Staphylococcus aureus
[2] = test system: S. aureus SA-APH3′ (APH3), resistant to kanamycin; experiment: MIC and checkerboard (FIC) assay; conditions: Staphylococcus aureus
[3] = test system: S. aureus SA-ANT4′ (ANT4), resistant to fusidic acid; experiment: MIC and checkerboard (FIC) assay; conditions: Staphylococcus aureus
[4] = test system: S. aureus SA-RN4220-pUL5054 (RN4220); experiment: MIC and checkerboard (FIC) assay; conditions: Staphylococcus aureus
[5] = test system: S. aureus SA-1199B (NorA efflux pump overexpressed); experiment: MIC and checkerboard (FIC) assay; conditions: Staphylococcus aureus
MRSA SA-ST239 = experiment: MIC and checkerboard (FIC) assay
[6] = test system: S. aureus ATCC25923 (methicillin sensitive); experiment: MIC and checkerboard (FIC) assay; conditions: Staphylococcus aureus
[7] = test system: panel of laboratory MRSA strains; experiment: MIC and combination tests, panel of laboratory strains; conditions: tanshinone highest tested concentration 128 μg/ml
CA-MRSA strain ST30 = experiment: MIC and checkerboard (FIC) assay; assay type: cell-based, Staphylococcus aureus
[8] = test system: Panton-Valentine leukocidin positive CA-MRSA strain ST30; assay type: in vivo, Balb/c mice; conditions: mouse, in vivo
clinical MRSA ST239 = experiment: Mouse pneumonia model, ST239 (neutropenic mice); assay type: in vivo, Balb/c mice; conditions: mouse, in vivo
[9] = test system: methicillin sensitive Staphylococcus aureus ATCC25923; experiment: Mouse pneumonia model, ATCC25923 (neutropenic mice); assay type: in vivo, Balb/c mice
physchem = conditions: saline or isotonic
CA MRSA W44 = experiment: MIC and checkerboard (FIC) assay
CA MRSA W45 = experiment: MIC and checkerboard (FIC) assay
CA MRSA W46 = experiment: MIC and checkerboard (FIC) assay
CA MRSA W47 = experiment: MIC and checkerboard (FIC) assay
CA MRSA W48 = experiment: MIC and checkerboard (FIC) assay
HA MRSA W231 = experiment: MIC and checkerboard (FIC) assay
HA MRSA W232 = experiment: MIC and checkerboard (FIC) assay
HA MRSA W233 = experiment: MIC and checkerboard (FIC) assay
HA MRSA W238 = experiment: MIC and checkerboard (FIC) assay
HA MRSA W239 = experiment: MIC and checkerboard (FIC) assay
[10] = test system: clinical community-associated (CA) and hospital-associated (HA) MRSA strains; experiment: MIC and combination tests, panel of clinical strains
[11] = Staphylococcus aureus, MRSA, read-out: MIC alone

Cc1coc2c1C(=O)C(=O)c1c-2ccc2c(C)cccc12 [Tanshinone, tanshinone]
ineffective: activity against the tested MRSA strains when used alone [7]
> 128 µg/mL: MIC90 [1] | MIC99 ([1]; read-out: MIC 99.9) | MIC90 [2] | MIC99 ([2]; read-out: MIC 99.9) | MIC90 [3] | MIC99 ([3]; read-out: MIC 99.9) | MIC90 [4] | MIC99 ([4]; read-out: MIC 99.9) | MIC90 [5] | MIC99 ([5]; read-out: MIC 99.9) | MIC90 (MRSA SA-ST239; Staphylococcus aureus, MRSA) | MIC99 (MRSA SA-ST239; Staphylococcus aureus, MRSA, read-out: MIC 99.9) | MIC90 ([6]; ATCC25923) | MIC99 ([6]; ATCC25923, read-out: MIC 99.9)
poor: solubility (Solubility)

CN[C@H](CC(C)C)C(=O)N[C@H]1C(=O)N[C@@H](CC(N)=O)C(=O)N[C@H]2C(=O)N[C@H]3C(=O)N[C@H](C(=O)N[C@H](C(=O)O)c4cc(O)cc(O)c4-c4cc3ccc4O)[C@H](O)c3ccc(c(Cl)c3)Oc3cc2cc(c3O[C@@H]2O[C@H](CO)[C@@H](O)[C@H](O)[C@H]2O[C@H]2C[C@](C)(N)[C@H](O)[C@H](C)O2)Oc2ccc(cc2Cl)[C@H]1O [Vancomycin, vancomycin, reference compound]
4.73±0.26 log CFU: mean bacteria counts (left lung) (clinical MRSA ST239)
20 mg/mL: solubility (physchem)
100%: survival rate [8]
6.064±0.425 log CFU: mean bacteria counts (left lung) ([9]; vancomycin 60 mg/kg, ECG 120 mg/kg, kuraridin 120 mg/kg, 48 h, control 8.909±0.101)
0.5: FIC (CA-MRSA strain ST30; ST30, ECG+Kur+Van) | FIC (MRSA SA-ST239; ST239, ECG+Kur+Van) | FIC (CA MRSA W44; W44, ECG+Kur+Van) | FIC (CA MRSA W45; W45, ECG+Kur+Van) | FIC (CA MRSA W46; W46, ECG+Kur+Van) | FIC (CA MRSA W48; W48, ECG+Kur+Van) | FIC (HA MRSA W232; W232, ECG+Kur+Van) | FIC (HA MRSA W233; W233, ECG+Kur+Van) | FIC (HA MRSA W238; W238, ECG+Kur+Van) | FIC (HA MRSA W239; W239, ECG+Kur+Van)
significantly lowered: expression levels of TNFα, IL-1β, and IL-6 from lung homogenates [8]
1 µg/mL: MIC (CA-MRSA strain ST30; [11]) | MIC (MRSA SA-ST239; [11]) | MIC (CA MRSA W44; [11]) | MIC (CA MRSA W45; [11]) | MIC (CA MRSA W46; [11]) | MIC (CA MRSA W47; [11]) | MIC (CA MRSA W48; [11]) | MIC (HA MRSA W231; [11]) | MIC (HA MRSA W232; [11]) | MIC (HA MRSA W233; [11]) | MIC (HA MRSA W238; [11]) | MIC (HA MRSA W239; [11]) | MIC ([10]; Staphylococcus aureus, MRSA, read-out: MIC of vancomycin alone)
0.25: FIC (CA MRSA W47; W47, ECG+Kur+Van)
0.25 µg/mL: MIC combine (CA MRSA W47; W47, ECG+Kur+Van)
0.5 µg/mL: MIC combine (CA-MRSA strain ST30; ST30, ECG+Kur+Van) | MIC combine (MRSA SA-ST239; ST239, ECG+Kur+Van) | MIC combine (CA MRSA W44; W44, ECG+Kur+Van) | MIC combine (CA MRSA W45; W45, ECG+Kur+Van) | MIC combine (CA MRSA W46; W46, ECG+Kur+Van) | MIC combine (CA MRSA W48; W48, ECG+Kur+Van) | MIC combine (HA MRSA W231; W231, ECG+Kur+Van) | MIC combine (HA MRSA W232; W232, ECG+Kur+Van) | MIC combine (HA MRSA W233; W233, ECG+Kur+Van) | MIC combine (HA MRSA W238; W238, ECG+Kur+Van) | MIC combine (HA MRSA W239; W239, ECG+Kur+Van) | MIC of vancomycin with ECG and kuraridin combined treatment ([10]; panel of clinical strains (Table 5))
fewer lesions: lung tissue profiles (histology) vs control [8] | lung tissue profiles (histology) vs control [9]
